Results taken from PubChem BioAssay AID248 (DTP/NCI, 2004).
Where “and” joins values, the source holds several entries; their conditions need not be identical. Identical values can stand only once. Inconclusive results and toxic doses are left out. No stated cut-off is given here; in the data, active means T/C of 150% or more; inactive means T/C below 125%.

Test system: L1210 leukemia ip in BDF1 mice, survival T/C
Experiment: NCI In Vivo Anticancer Drug Screen. Data for tumor model L1210 Leukemia (intraperitoneal) in B6D2F1 (BDF1) mice
Conditions: endpoint: mean survival time, higher = longer survival
How it was run: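 Each compound was tested against a transplantable tumor grown in mice. The endpoint was survival, with treated animals benchmarked against vehicle controls as a simple ratio.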

[1] = dose: 6.25 mg/kg/injection, schedule: Q01DX009 (ip), vehicle: saline with Tween-80
[2] = dose: 12.5 mg/kg/injection, schedule: Q01DX009 (ip), vehicle: saline with Tween-80
[3] = dose: 100.0 mg/kg/injection, schedule: Q01DX009 (ip), vehicle: saline with Tween-80
[4] = dose: 100.0 mg/kg/injection, schedule: Q04DX003 (ip), vehicle: saline with Tween-80
[5] = dose: 200.0 mg/kg/injection, schedule: Q04DX003 (ip), vehicle: saline with Tween-80
[6] = dose: 400.0 mg/kg/injection, schedule: Q04DX003 (ip), vehicle: saline with Tween-80
[7] = dose: 100.0 mg/kg/injection, schedule: Q04DX002 (ip), vehicle: Klucel (hydroxypropylcellulose) (HPC)
[8] = dose: 100.0 mg/kg/injection, schedule: Q01DX009 (ip), vehicle: Klucel (hydroxypropylcellulose) (HPC)
[9] = dose: 200.0 mg/kg/injection, schedule: Q01DX009 (ip), vehicle: Klucel (hydroxypropylcellulose) (HPC)
[10] = dose: 400.0 mg/kg/injection, schedule: Q01DX009 (ip), vehicle: Klucel (hydroxypropylcellulose) (HPC)
[11] = dose: 100.0 mg/kg/injection, schedule: Q01DX001 (ip), vehicle: other
[12] = dose: 100.0 mg/kg/injection, schedule: Q04DX003 (ip), vehicle: Klucel (hydroxypropylcellulose) (HPC)
[13] = dose: 200.0 mg/kg/injection, schedule: Q01DX001 (ip), vehicle: other
[14] = dose: 200.0 mg/kg/injection, schedule: Q04DX003 (ip), vehicle: Klucel (hydroxypropylcellulose) (HPC)
[15] = dose: 400.0 mg/kg/injection, schedule: Q01DX001 (ip), vehicle: other
[16] = dose: 400.0 mg/kg/injection, schedule: Q04DX003 (ip), vehicle: Klucel (hydroxypropylcellulose) (HPC)
[17] = dose: 100.0 mg/kg/injection, schedule: Q04DX002 (ip), vehicle: saline
[18] = dose: 200.0 mg/kg/injection, schedule: Q04DX002 (ip), vehicle: saline
[19] = dose: 400.0 mg/kg/injection, schedule: Q04DX002 (ip), vehicle: saline
[20] = dose: 100.0 mg/kg/injection, schedule: Q01DX001 (ip), vehicle: saline
[21] = dose: 200.0 mg/kg/injection, schedule: Q01DX001 (ip), vehicle: saline
[22] = dose: 400.0 mg/kg/injection, schedule: Q01DX001 (ip), vehicle: saline
[23] = dose: 100.0 mg/kg/injection, schedule: Q04DX003 (ip), vehicle: saline
[24] = dose: 200.0 mg/kg/injection, schedule: Q04DX003 (ip), vehicle: saline
[25] = dose: 400.0 mg/kg/injection, schedule: Q04DX003 (ip), vehicle: saline
[26] = dose: 25.0 mg/kg/injection, schedule: Q01DX009 (ip), vehicle: saline with Tween-80

Measured: T/C

CC1OC(OC2C(O[C@H]3CC[C@@]4(C)C(=CC[C@H]5[C@@H]6C[C@@H]7O[C@]8(CC[C@H](C)CN8)[C@@H](C)[C@@H]7[C@@]6(C)CC[C@@H]54)C3)OC(CO)C(O)C2OC2OC(CO)C(O)C(O)C2O)C(O)C(O)C1O (stereo not given in full)
inactive: dose: 5.0 mg/kg/injection, schedule: Q01DX001 (ip), vehicle: other 97 % of control | dose: 10.0 mg/kg/injection, schedule: Q01DX001 (ip), vehicle: other 109 % of control | dose: 20.0 mg/kg/injection, schedule: Q01DX001 (ip), vehicle: other 106 % of control

C#CC(=O)C(CC)CCCC (stereo not given)
inactive: [1] 115 % of control | [2] 117 % of control

O=c1[nH]c(C(F)(F)F)nc2c1nc1n2CCC1
inactive: [3] 103 % of control | [4] 91 % of control | dose: 200.0 mg/kg/injection, schedule: Q01DX009 (ip), vehicle: saline with Tween-80 102 % of control | [5] 96 % of control | dose: 400.0 mg/kg/injection, schedule: Q01DX009 (ip), vehicle: saline with Tween-80 97 % of control | [6] 86 % of control

Cc1ccc([N+](=O)[O-])cc1NC(=O)Nc1ccc(Nc2ccccc2)cc1
inactive: [7] 86 % of control | dose: 200.0 mg/kg/injection, schedule: Q04DX002 (ip), vehicle: Klucel (hydroxypropylcellulose) (HPC) 86 % of control | dose: 400.0 mg/kg/injection, schedule: Q04DX002 (ip), vehicle: Klucel (hydroxypropylcellulose) (HPC) 97 % of control

O=C(OCC#CC#CCOC(=O)c1cccc2ccccc12)c1cccc2ccccc12
inactive: [8] 93 % of control | [9] 89 % of control | [10] 93 % of control

CCOC(=O)C(C)C(O)(c1ccccc1)c1ccccc1 (stereo not given)
inactive: [8] 90 % of control | [9] 97 % of control | [10] 106 % of control

Cn1c2c(sc1=O)CCC2
inactive: dose: 50.0 mg/kg/injection, schedule: Q01DX Z (ip), vehicle: methylcellulose (MC) 102 % of control and 105 % of control | [11] 103 % of control | dose: 100.0 mg/kg/injection, schedule: Q01DX Z (ip), vehicle: methylcellulose (MC) 111 % of control | [12] 99 % of control | [13] 111 % of control | dose: 200.0 mg/kg/injection, schedule: Q01DX Z (ip), vehicle: methylcellulose (MC) 93 % of control | [14] 100 % of control | [15] 105 % of control

COc1cc2c(cc1O)C(=O)CCC=C2
inactive: dose: 50.0 mg/kg/injection, schedule: Q01DX009 (ip), vehicle: other 102 % of control | dose: 100.0 mg/kg/injection, schedule: Q01DX009 (ip), vehicle: other 98 % of control | dose: 200.0 mg/kg/injection, schedule: Q01DX009 (ip), vehicle: other 94 % of control

CC(=O)OC(C(=O)c1ccccc1)c1ccccc1 (stereo not given)
inactive: [8] 94 % of control | [12] 104 % of control | [9] 94 % of control | [14] 104 % of control | [10] 104 % of control | [16] 91 % of control

CC(NC(N)=O)C(=O)O (stereo not given)
inactive: [17] 89 % of control | [18] 104 % of control | [19] 93 % of control

Cc1ccc(S(=O)(=O)OC23CCC(C)(CC2)C(=O)C3)cc1
inactive: [17] 91 % of control | [18] 102 % of control | [19] 91 % of control

O=C(Cn1ccc(=O)[nH]c1=O)Nc1ccc(C(=O)O)cc1
inactive: [20] 96 % of control | [21] 111 % of control | [22] 96 % of control

CC12CCCCC1C(C(N)=O)C(=O)O2 (stereo not given)
inactive: [20] 105 % of control | [21] 97 % of control | [22] 105 % of control

[B-][NH2+]CC[NH2+][B-]
inactive: [22] 117 % of control

CCCCCCSc1ccccn1
inactive: [23] 101 % of control | [24] 107 % of control | [25] 96 % of control

O=[N+]([O-])c1c(Cl)cccc1-c1c[nH]cc1Cl
inactive: [11] 92 % of control | [13] 90 % of control | [15] 97 % of control

O=C1C2CC=CCC2C(=O)N1SC(Cl)(Cl)Cl (stereo not given)
inactive: dose: 0.78 mg/kg/injection, schedule: Q01DX009 (ip), vehicle: saline with Tween-80 107 % of control | dose: 1.56 mg/kg/injection, schedule: Q01DX009 (ip), vehicle: saline with Tween-80 104 % of control | dose: 3.12 mg/kg/injection, schedule: Q01DX009 (ip), vehicle: saline with Tween-80 103 % of control | [1] 103 % of control | [2] 97 % of control | [26] 98 % of control

O=S(=O)(CCCl)c1ccc2ccccc2c1
inactive: dose: 25.0 mg/kg/injection, schedule: Q04DX002 (ip), vehicle: Klucel (hydroxypropylcellulose) (HPC) 100 % of control | dose: 50.0 mg/kg/injection, schedule: Q04DX002 (ip), vehicle: Klucel (hydroxypropylcellulose) (HPC) 104 % of control | [7] 96 % of control

COc1cc2c(cc1OC)CN1CCC(=O)CC1C2 (stereo not given)
inactive: dose: 100.0 mg/kg/injection, schedule: Q01DX001 (ip), vehicle: saline with Tween-80 107 % of control | dose: 200.0 mg/kg/injection, schedule: Q01DX001 (ip), vehicle: saline with Tween-80 102 % of control | dose: 400.0 mg/kg/injection, schedule: Q01DX001 (ip), vehicle: saline with Tween-80 106 % of control

O=C1c2cc(O)c(O)cc2O[C@H](c2ccc(O)c(O)c2)[C@H]1O
inactive: [23] 106 % of control | [24] 100 % of control | [25] 104 % of control

CCOC(=O)NP(=O)(Nc1ccc(C)cc1)Nc1ccc(C)cc1
inactive: dose: 50.0 mg/kg/injection, schedule: Q01DX001 (ip), vehicle: carboxymethylcellulose (CMC) 104 % of control | dose: 100.0 mg/kg/injection, schedule: Q01DX001 (ip), vehicle: carboxymethylcellulose (CMC) 98 % of control | dose: 200.0 mg/kg/injection, schedule: Q01DX001 (ip), vehicle: carboxymethylcellulose (CMC) 95 % of control | dose: 400.0 mg/kg/injection, schedule: Q01DX001 (ip), vehicle: carboxymethylcellulose (CMC) 98 % of control

CC(=O)Nc1c(Cl)cc2c(c1Cl)C(=O)c1ccccc1-2
inactive: [12] 105 % of control | [14] 100 % of control | [16] 103 % of control

CCOc1ccc(NC(=O)OCCCl)cc1
inactive: dose: 75.0 mg/kg/injection, schedule: Q04DX002 (ip), vehicle: Klucel (hydroxypropylcellulose) (HPC) 105 % of control | dose: 150.0 mg/kg/injection, schedule: Q04DX002 (ip), vehicle: Klucel (hydroxypropylcellulose) (HPC) 105 % of control | dose: 300.0 mg/kg/injection, schedule: Q04DX002 (ip), vehicle: Klucel (hydroxypropylcellulose) (HPC) 101 % of control

c1ccc(C2=NNC(c3ccccc3)(c3ccccc3)c3ccccc32)cc1
inactive: [11] 96 % of control | [13] 90 % of control | [15] 95 % of control

Nc1[nH]nc2nc(-c3ccccc3)cnc12
inactive: [26] 121 % of control | dose: 50.0 mg/kg/injection, schedule: Q01DX009 (ip), vehicle: saline with Tween-80 110 % of control | [3] 95 % of control and 102 % of control | [4] 94 % of control | [5] 92 % of control | [6] 92 % of control

NNC(=O)c1cccc([N+](=O)[O-])c1
inactive: dose: 12.5 mg/kg/injection, schedule: Q04DX003 (ip), vehicle: Klucel (hydroxypropylcellulose) (HPC) 100 % of control | dose: 25.0 mg/kg/injection, schedule: Q04DX003 (ip), vehicle: Klucel (hydroxypropylcellulose) (HPC) 96 % of control

CC(=O)Nc1ccc(C)cc1
inactive: dose: 100.0 mg/kg/injection, schedule: Q01DX001 (ip), vehicle: Klucel (hydroxypropylcellulose) (HPC) 94 % of control | dose: 200.0 mg/kg/injection, schedule: Q01DX001 (ip), vehicle: Klucel (hydroxypropylcellulose) (HPC) 102 % of control | dose: 400.0 mg/kg/injection, schedule: Q01DX001 (ip), vehicle: Klucel (hydroxypropylcellulose) (HPC) 91 % of control
